In PubChem BioAssay (NCI):
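The compound was tested at five concentrations on cells cultured in 96-well plates, with a 48-hour exposure period. Abbreviation: GI50, concentration required for 50% inhibition of growth. TGI: concentration producing complete growth inhibition.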

Columns and labels:
Test in all cases: NCI-60 cell line screen, 48 h
786-0 renal = system: 786-0 renal
A498 renal = system: A498 renal
A549 NSCLC = system: A549 NSCLC
ACHN renal = system: ACHN renal
BT-549 breast = system: BT-549 breast
CAKI-1 renal = system: CAKI-1 renal
CCRF-CEM leukemia = system: CCRF-CEM leukemia
COLO 205 colon = system: COLO 205 colon
DU-145 prostate = system: DU-145 prostate
EKVX NSCLC = system: EKVX NSCLC
HCC-2998 colon = system: HCC-2998 colon
HCT-116 colon = system: HCT-116 colon
HCT-15 colon = system: HCT-15 colon
HL-60(TB) leukemia = system: HL-60(TB) leukemia
HOP-62 NSCLC = system: HOP-62 NSCLC
HOP-92 NSCLC = system: HOP-92 NSCLC
HS 578T breast = system: HS 578T breast
HT29 colon = system: HT29 colon
IGROV1 ovarian = system: IGROV1 ovarian
K-562 leukemia = system: K-562 leukemia
KM12 colon = system: KM12 colon
LOX IMVI melanoma = system: LOX IMVI melanoma
M14 melanoma = system: M14 melanoma
MALME-3M melanoma = system: MALME-3M melanoma
MCF7 breast = system: MCF7 breast
MDA-MB-231 breast = system: MDA-MB-231 breast
MDA-MB-435 = system: MDA-MB-435
MOLT-4 leukemia = system: MOLT-4 leukemia
NCI-H226 lung = system: NCI-H226 lung
NCI-H23 lung = system: NCI-H23 lung
NCI-H460 lung = system: NCI-H460 lung
NCI-H522 lung = system: NCI-H522 lung
NCI/ADR-RES ovarian = system: NCI/ADR-RES ovarian
OVCAR-3 ovarian = system: OVCAR-3 ovarian
OVCAR-4 ovarian = system: OVCAR-4 ovarian
OVCAR-5 ovarian = system: OVCAR-5 ovarian
OVCAR-8 ovarian = system: OVCAR-8 ovarian
PC-3 prostate = system: PC-3 prostate
RPMI-8226 leukemia = system: RPMI-8226 leukemia
RXF 393 renal = system: RXF 393 renal
SF-268 CNS = system: SF-268 CNS
SF-295 CNS = system: SF-295 CNS
SF-539 CNS = system: SF-539 CNS
SK-MEL-2 melanoma = system: SK-MEL-2 melanoma
SK-MEL-28 melanoma = system: SK-MEL-28 melanoma
SK-MEL-5 melanoma = system: SK-MEL-5 melanoma
SK-OV-3 ovarian = system: SK-OV-3 ovarian
SN12C renal = system: SN12C renal
SNB-19 CNS = system: SNB-19 CNS
SNB-75 CNS = system: SNB-75 CNS
SR leukemia = system: SR leukemia
SW-620 colon = system: SW-620 colon
T-47D breast = system: T-47D breast
TK-10 renal = system: TK-10 renal
U251 CNS = system: U251 CNS
UACC-257 melanoma = system: UACC-257 melanoma
UACC-62 melanoma = system: UACC-62 melanoma
UO-31 renal = system: UO-31 renal

Structure (SMILES): C/C=C(\C)C(=O)O[C@H]1C=CC(=O)O[C@H]1CC[C@H](O)[C@H](C)O
- GI50 (786-0 renal): 5.46 µM
- TGI (786-0 renal): 12.8 µM
- GI50 (A498 renal): 16.4 µM
- TGI (A498 renal): 30.3 µM
- GI50 (A549 NSCLC): 18 µM
- TGI (A549 NSCLC): 36.3 µM
- GI50 (ACHN renal): 6.42 µM
- TGI (ACHN renal): 19.7 µM
- GI50 (BT-549 breast): 6.14 µM
- TGI (BT-549 breast): 19.9 µM
- GI50 (CAKI-1 renal): 7.12 µM
- TGI (CAKI-1 renal): 13.1 µM
- TGI (CCRF-CEM leukemia): 0.335 µM
- GI50 (COLO 205 colon): 3.22 µM
- TGI (COLO 205 colon): 10.1 µM
- GI50 (DU-145 prostate): 13.8 µM
- TGI (DU-145 prostate): 27 µM
- GI50 (EKVX NSCLC): 15.8 µM
- TGI (EKVX NSCLC): 30.5 µM
- GI50 (HCC-2998 colon): 12.3 µM
- TGI (HCC-2998 colon): 26.3 µM
- GI50 (HCT-116 colon): 1.38 µM
- TGI (HCT-116 colon): 2.82 µM
- GI50 (HCT-15 colon): 3.41 µM
- TGI (HCT-15 colon): 12.7 µM
- GI50 (HL-60(TB) leukemia): 0.469 µM
- TGI (HL-60(TB) leukemia): 4.77 µM
- GI50 (HOP-62 NSCLC): 15.3 µM
- TGI (HOP-62 NSCLC): 29.7 µM
- GI50 (HOP-92 NSCLC): 6.3 µM
- TGI (HOP-92 NSCLC): 16.1 µM
- GI50 (HS 578T breast): 6.8 µM
- TGI (HS 578T breast): 18.1 µM
- GI50 (HT29 colon): 2.38 µM
- TGI (HT29 colon): 6.65 µM
- GI50 (IGROV1 ovarian): 4.17 µM
- TGI (IGROV1 ovarian): 19 µM
- GI50 (K-562 leukemia): 2.3 µM
- TGI (K-562 leukemia): 8.72 µM
- GI50 (KM12 colon): 12.4 µM
- TGI (KM12 colon): 29.1 µM
- GI50 (LOX IMVI melanoma): 2.24 µM
- TGI (LOX IMVI melanoma): 5.66 µM
- GI50 (M14 melanoma): 6.82 µM
- TGI (M14 melanoma): 21.9 µM
- GI50 (MALME-3M melanoma): 4.62 µM
- TGI (MALME-3M melanoma): 16.1 µM
- GI50 (MCF7 breast): 2.45 µM
- TGI (MCF7 breast): 11.3 µM
- GI50 (MDA-MB-231 breast): 12.8 µM
- TGI (MDA-MB-231 breast): 28.3 µM
- GI50 (MDA-MB-435): 3.43 µM
- TGI (MDA-MB-435): 12.7 µM
- GI50 (MOLT-4 leukemia): 0.522 µM
- TGI (MOLT-4 leukemia): 5.59 µM
- GI50 (NCI-H226 lung): 4.14 µM
- TGI (NCI-H226 lung): 16.6 µM
- GI50 (NCI-H23 lung): 15.7 µM
- TGI (NCI-H23 lung): 34.2 µM
- GI50 (NCI-H460 lung): 11.6 µM
- TGI (NCI-H460 lung): 25.4 µM
- GI50 (NCI-H522 lung): 2.05 µM
- TGI (NCI-H522 lung): 6.13 µM
- GI50 (NCI/ADR-RES ovarian): 15.3 µM
- TGI (NCI/ADR-RES ovarian): 34 µM
- GI50 (OVCAR-3 ovarian): 3.06 µM
- TGI (OVCAR-3 ovarian): 8.79 µM
- GI50 (OVCAR-4 ovarian): 6.42 µM
- TGI (OVCAR-4 ovarian): 20.7 µM
- GI50 (OVCAR-5 ovarian): 16.9 µM
- TGI (OVCAR-5 ovarian): 32.1 µM
- GI50 (OVCAR-8 ovarian): 12.8 µM
- TGI (OVCAR-8 ovarian): 30.7 µM
- GI50 (PC-3 prostate): 8.46 µM
- TGI (PC-3 prostate): 22.7 µM
- GI50 (RPMI-8226 leukemia): 2.22 µM
- TGI (RPMI-8226 leukemia): 7.54 µM
- GI50 (RXF 393 renal): 2 µM
- TGI (RXF 393 renal): 5.4 µM
- GI50 (SF-268 CNS): 2.83 µM
- TGI (SF-268 CNS): 12.3 µM
- GI50 (SF-295 CNS): 13 µM
- TGI (SF-295 CNS): 26.5 µM
- GI50 (SF-539 CNS): 13.3 µM
- TGI (SF-539 CNS): 27.1 µM
- GI50 (SK-MEL-2 melanoma): 8.41 µM
- TGI (SK-MEL-2 melanoma): 27.9 µM
- GI50 (SK-MEL-28 melanoma): 2.85 µM
- TGI (SK-MEL-28 melanoma): 8.05 µM
- GI50 (SK-MEL-5 melanoma): 5.13 µM
- TGI (SK-MEL-5 melanoma): 11 µM
- GI50 (SK-OV-3 ovarian): 16.2 µM
- TGI (SK-OV-3 ovarian): 31 µM
- GI50 (SN12C renal): 8.06 µM
- TGI (SN12C renal): 25.3 µM
- GI50 (SNB-19 CNS): 12.3 µM
- TGI (SNB-19 CNS): 26.4 µM
- GI50 (SNB-75 CNS): 8.98 µM
- TGI (SNB-75 CNS): 22.7 µM
- GI50 (SR leukemia): 15.1 µM
- TGI (SR leukemia): 45.7 µM
- GI50 (SW-620 colon): 2.64 µM
- TGI (SW-620 colon): 6.08 µM
- GI50 (T-47D breast): 2.34 µM
- TGI (T-47D breast): 10.8 µM
- GI50 (TK-10 renal): 9.78 µM
- TGI (TK-10 renal): 23.9 µM
- GI50 (U251 CNS): 4.64 µM
- TGI (U251 CNS): 17.4 µM
- GI50 (UACC-257 melanoma): 16.4 µM
- TGI (UACC-257 melanoma): 34.2 µM
- GI50 (UACC-62 melanoma): 6.42 µM
- TGI (UACC-62 melanoma): 17.3 µM
- GI50 (UO-31 renal): 9.06 µM
- TGI (UO-31 renal): 23.5 µM
